Experiments:
Assay in all cases: relative viability (nuclei count vs DMSO), 5 days (fraction); higher = more cells survive
LK-2 = system: LK-2
Summary of the method: (§1)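 One day after seeding in 1536-well plates, lung cancer cell lines were dosed by pin tool. Dosing was either single-drug or a fixed anchor-drug dose plus five library-drug doses (not always all listed) in √10 steps. After 5 days, nuclei were stained in one fix-and-stain step and counted on 4× images, and relative viability is the nuclei count of treated wells over that of vehicle wells, given as the median of duplicate plates.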

BEN = system: BEN
Summary of the method: as §1

HCC-366 = system: HCC-366
Summary of the method: as §1

NCI-H1650 = system: NCI-H1650
Summary of the method: as §1

NCI-H2170 = system: NCI-H2170
Summary of the method: as §1

201T = system: 201T
Summary of the method: as §1

NCI-H2009 = system: NCI-H2009
Summary of the method: as §1

NCI-H838 = system: NCI-H838
Summary of the method: as §1

EKVX = system: EKVX
Summary of the method: as §1

COR-L 105 = system: COR-L 105
Summary of the method: as §1

SW 900 = system: SW 900
Summary of the method: as §1

COR-L23 = system: COR-L23
Summary of the method: as §1

NCI-H1666 = system: NCI-H1666
Summary of the method: as §1

NCI-H2023 = system: NCI-H2023
Summary of the method: as §1

NCI-H727 = system: NCI-H727
Summary of the method: as §1

NCI-H661 = system: NCI-H661
Summary of the method: as §1

NCI-H441 = system: NCI-H441
Summary of the method: as §1

LU99A = system: LU99A
Summary of the method: as §1

ABC-1 = system: ABC-1
Summary of the method: as §1

HARA = system: HARA
Summary of the method: as §1

PC-14 = system: PC-14
Summary of the method: as §1

NCI-H3122 = system: NCI-H3122
Summary of the method: as §1

NCI-H1437 = system: NCI-H1437
Summary of the method: as §1

Structure (SMILES): Clc1ccc(Nc2nnc(Cc3ccncc3)c3ccccc23)cc1 [Vatalanib] + Nc1ncn([C@H]2C[C@H](O)[C@@H](CO)O2)c(=O)n1 [Decitabine] (partner 2 µM)
- relative viability (LK-2; first compound 0.04 µM): 0.242
- relative viability (LK-2; first compound 0.1265 µM): 0.25
- relative viability (LK-2; first compound 0.4 µM): 0.297
- relative viability (LK-2; first compound 1.265 µM): 0.266
- relative viability (LK-2; first compound 4 µM): 0.319
- relative viability (BEN; first compound 0.04 µM): 0.644
- relative viability (BEN; first compound 0.1265 µM): 0.727
- relative viability (BEN; first compound 0.4 µM): 0.504
- relative viability (BEN; first compound 1.265 µM): 0.739
- relative viability (BEN; first compound 4 µM): 0.774
- relative viability (HCC-366; first compound 0.04 µM): 0.328
- relative viability (HCC-366; first compound 0.1265 µM): 0.271
- relative viability (HCC-366; first compound 0.4 µM): 0.395
- relative viability (HCC-366; first compound 1.265 µM): 0.312
- relative viability (HCC-366; first compound 4 µM): 0.348
- relative viability (NCI-H1650; first compound 0.04 µM): 0.361
- relative viability (NCI-H1650; first compound 0.1265 µM): 0.414
- relative viability (NCI-H1650; first compound 0.4 µM): 0.388
- relative viability (NCI-H1650; first compound 1.265 µM): 0.373
- relative viability (NCI-H1650; first compound 4 µM): 0.424
- relative viability (NCI-H2170; first compound 0.04 µM): 0.479
- relative viability (NCI-H2170; first compound 0.1265 µM): 0.474
- relative viability (NCI-H2170; first compound 0.4 µM): 0.488
- relative viability (NCI-H2170; first compound 1.265 µM): 0.469
- relative viability (NCI-H2170; first compound 4 µM): 0.487
- relative viability (201T; first compound 0.04 µM): 0.832
- relative viability (201T; first compound 0.1265 µM): 0.85
- relative viability (201T; first compound 0.4 µM): 0.881
- relative viability (201T; first compound 1.265 µM): 0.867
- relative viability (201T; first compound 4 µM): 0.861
- relative viability (NCI-H2009; first compound 0.04 µM): 0.378
- relative viability (NCI-H2009; first compound 0.1265 µM): 0.334
- relative viability (NCI-H2009; first compound 0.4 µM): 0.343
- relative viability (NCI-H2009; first compound 1.265 µM): 0.404
- relative viability (NCI-H2009; first compound 4 µM): 0.396
- relative viability (NCI-H838; first compound 0.04 µM): 0.435
- relative viability (NCI-H838; first compound 0.1265 µM): 0.467
- relative viability (NCI-H838; first compound 0.4 µM): 0.441
- relative viability (NCI-H838; first compound 1.265 µM): 0.483
- relative viability (NCI-H838; first compound 4 µM): 0.448
- relative viability (EKVX; first compound 0.04 µM): 0.41
- relative viability (EKVX; first compound 0.1265 µM): 0.346
- relative viability (EKVX; first compound 0.4 µM): 0.308
- relative viability (EKVX; first compound 1.265 µM): 0.338
- relative viability (EKVX; first compound 4 µM): 0.296
- relative viability (COR-L 105; first compound 0.04 µM): 0.722
- relative viability (COR-L 105; first compound 0.1265 µM): 0.706
- relative viability (COR-L 105; first compound 0.4 µM): 0.796
- relative viability (COR-L 105; first compound 1.265 µM): 0.681
- relative viability (COR-L 105; first compound 4 µM): 0.714
- relative viability (SW 900; first compound 0.04 µM): 0.421
- relative viability (SW 900; first compound 0.1265 µM): 0.457
- relative viability (SW 900; first compound 0.4 µM): 0.447
- relative viability (SW 900; first compound 1.265 µM): 0.423
- relative viability (SW 900; first compound 4 µM): 0.425
- relative viability (COR-L23; first compound 0.04 µM): 0.503
- relative viability (COR-L23; first compound 0.1265 µM): 0.414
- relative viability (COR-L23; first compound 0.4 µM): 0.565
- relative viability (COR-L23; first compound 1.265 µM): 0.441
- relative viability (COR-L23; first compound 4 µM): 0.404
- relative viability (NCI-H1666; first compound 0.04 µM): 0.649
- relative viability (NCI-H1666; first compound 0.1265 µM): 0.755
- relative viability (NCI-H1666; first compound 0.4 µM): 0.593
- relative viability (NCI-H1666; first compound 1.265 µM): 0.672
- relative viability (NCI-H1666; first compound 4 µM): 0.785
- relative viability (NCI-H2023; first compound 0.04 µM): 0.22
- relative viability (NCI-H2023; first compound 0.1265 µM): 0.205
- relative viability (NCI-H2023; first compound 0.4 µM): 0.231
- relative viability (NCI-H2023; first compound 1.265 µM): 0.221
- relative viability (NCI-H2023; first compound 4 µM): 0.219
- relative viability (NCI-H727; first compound 0.1265 µM): 0.801
- relative viability (NCI-H727; first compound 0.4 µM): 0.539
- relative viability (NCI-H727; first compound 1.265 µM): 0.821
- relative viability (NCI-H727; first compound 4 µM): 0.973
- relative viability (NCI-H661; first compound 0.04 µM): 0.584
- relative viability (NCI-H661; first compound 0.1265 µM): 0.512
- relative viability (NCI-H661; first compound 0.4 µM): 0.544
- relative viability (NCI-H661; first compound 1.265 µM): 0.597
- relative viability (NCI-H661; first compound 4 µM): 0.524
- relative viability (NCI-H441; first compound 0.04 µM): 0.237
- relative viability (NCI-H441; first compound 0.1265 µM): 0.212
- relative viability (NCI-H441; first compound 0.4 µM): 0.206
- relative viability (NCI-H441; first compound 1.265 µM): 0.228
- relative viability (NCI-H441; first compound 4 µM): 0.242
- relative viability (LU99A; first compound 0.04 µM): 0.835
- relative viability (LU99A; first compound 0.1265 µM): 0.842
- relative viability (LU99A; first compound 0.4 µM): 0.962
- relative viability (LU99A; first compound 1.265 µM): 0.868
- relative viability (LU99A; first compound 4 µM): 0.84
- relative viability (ABC-1; first compound 0.04 µM): 1.02
- relative viability (ABC-1; first compound 0.1265 µM): 0.79
- relative viability (ABC-1; first compound 0.4 µM): 1.17
- relative viability (ABC-1; first compound 4 µM): 1.22
- relative viability (HARA; first compound 0.04 µM): 0.623
- relative viability (HARA; first compound 0.1265 µM): 0.446
- relative viability (HARA; first compound 0.4 µM): 0.463
- relative viability (HARA; first compound 1.265 µM): 0.526
- relative viability (HARA; first compound 4 µM): 0.521
- relative viability (PC-14; first compound 0.04 µM): 0.231
- relative viability (PC-14; first compound 0.1265 µM): 0.213
- relative viability (PC-14; first compound 0.4 µM): 0.219
- relative viability (PC-14; first compound 1.265 µM): 0.174
- relative viability (PC-14; first compound 4 µM): 0.253
- relative viability (NCI-H3122; first compound 0.04 µM): 0.411
- relative viability (NCI-H3122; first compound 0.1265 µM): 0.432
- relative viability (NCI-H3122; first compound 0.4 µM): 0.406
- relative viability (NCI-H3122; first compound 1.265 µM): 0.438
- relative viability (NCI-H3122; first compound 4 µM): 0.457
- relative viability (NCI-H1437; first compound 0.04 µM): 0.53
- relative viability (NCI-H1437; first compound 0.1265 µM): 0.523
- relative viability (NCI-H1437; first compound 0.4 µM): 0.573
- relative viability (NCI-H1437; first compound 1.265 µM): 0.587
- relative viability (NCI-H1437; first compound 4 µM): 0.608

Source: the supplement of paper PMC10307832
